System: MV-4-11 cells
Assay: Gene expression microarray analysis (Affymetrix PrimeView) and GSEA
Format: cell-based, human
Parameters: RFU PODN (11730768_x_at) / Fold change /veh PODN (11730768_x_at) / RFU LINC00158 (11744669_a_at) / Fold change /veh LINC00158 (11744669_a_at) / RFU DUSP10 (11751237_a_at) / Fold change /veh DUSP10 (11751237_a_at) / RFU ID3 (11757404_x_at) / Fold change /veh ID3 (11757404_x_at) / RFU PLEKHG5 (11737974_s_at) / Fold change /veh PLEKHG5 (11737974_s_at) / RFU LRRC4B (11730491_at) / Fold change /veh LRRC4B (11730491_at) / RFU GIMAP4 (11747438_a_at) / Fold change /veh GIMAP4 (11747438_a_at) / RFU KRT8 (11758183_x_at) / Fold change /veh KRT8 (11758183_x_at) / RFU CNN1 (11734310_a_at) / Fold change /veh CNN1 (11734310_a_at) / RFU VPS37D (11726825_at) / Fold change /veh VPS37D (11726825_at) / RFU C10orf10 (11716522_x_at) / Fold change /veh C10orf10 (11716522_x_at) / RFU KIR2DL2 /// KIR2DL4 /// KIR2DL5A /// KIR2DL5B /// KIR2DS1 /// KIR2DS2 /// KIR2DS3 /// KIR2DS4 /// KIR3DL3 /// KIR3DL3 /// KIR3DS1 (11738374_at) / Fold change /veh KIR2DL2 /// KIR2DL4 /// KIR2DL5A /// KIR2DL5B /// KIR2DS1 /// KIR2DS2 /// KIR2DS3 /// KIR2DS4 /// KIR3DL3 /// KIR3DL3 /// KIR3DS1 (11738374_at) / RFU C1QL1 (11718748_at) / Fold change /veh C1QL1 (11718748_at) / RFU TMPRSS4 (11747572_a_at) / Fold change /veh TMPRSS4 (11747572_a_at) / RFU HAMP (11756126_x_at) / Fold change /veh HAMP (11756126_x_at) / RFU RNFT2 (11725882_a_at) / Fold change /veh RNFT2 (11725882_a_at) / RFU NR4A2 (11747474_a_at) / Fold change /veh NR4A2 (11747474_a_at) / RFU ABCC12 (11746883_a_at) / Fold change /veh ABCC12 (11746883_a_at) / RFU TMEM136 (11760407_x_at) / Fold change /veh TMEM136 (11760407_x_at) / RFU CLDN22 /// WWC2 (11732394_at) / Fold change /veh CLDN22 /// WWC2 (11732394_at) / RFU HLA-DPB1 (11760878_x_at) / Fold change /veh HLA-DPB1 (11760878_x_at) / RFU SPINT1 (11716480_a_at) / Fold change /veh SPINT1 (11716480_a_at) / RFU GAP43 (11754022_s_at) / Fold change /veh GAP43 (11754022_s_at) / RFU A4GNT (11735810_at) / Fold change /veh A4GNT (11735810_at) / RFU PRB3 (11715151_x_at) / Fold change /veh PRB3 (11715151_x_at) / RFU TUBB4B (11761932_at) / Fold change /veh TUBB4B (11761932_at) / RFU CAPN14 (11732068_a_at) / Fold change /veh CAPN14 (11732068_a_at) / RFU TMCC2 (11721928_a_at) / Fold change /veh TMCC2 (11721928_a_at) / RFU IRGQ (11745062_a_at) / Fold change /veh IRGQ (11745062_a_at) / RFU FAM174B (11720279_a_at) / Fold change /veh FAM174B (11720279_a_at) / RFU TMPRSS4 (11748680_a_at) / Fold change /veh TMPRSS4 (11748680_a_at) / RFU FAM212B (11763350_a_at) / Fold change /veh FAM212B (11763350_a_at) / RFU PLEKHG5 (11743358_a_at) / Fold change /veh PLEKHG5 (11743358_a_at) / RFU ZSCAN30 (11745921_a_at) / Fold change /veh ZSCAN30 (11745921_a_at) / RFU CMKLR1 (11741424_a_at) / Fold change /veh CMKLR1 (11741424_a_at) / RFU LOC101060620 /// MAPK8IP1 (11723275_at) / Fold change /veh LOC101060620 /// MAPK8IP1 (11723275_at) / RFU SPTSSB (11747773_x_at) / Fold change /veh SPTSSB (11747773_x_at) / RFU PRSS12 (11739890_at) / Fold change /veh PRSS12 (11739890_at) / RFU BIN1 (11741810_x_at) / Fold change /veh BIN1 (11741810_x_at) / RFU WNT11 (11732464_a_at) / Fold change /veh WNT11 (11732464_a_at) / RFU C10orf10 (11716521_a_at) / Fold change /veh C10orf10 (11716521_a_at) / RFU C5orf56 (11738089_at) / Fold change /veh C5orf56 (11738089_at) / RFU CYB561 (11721691_x_at) / Fold change /veh CYB561 (11721691_x_at) / RFU ANKRD19P (11752326_a_at) / Fold change /veh ANKRD19P (11752326_a_at) / RFU OR2T12 /// OR2T33 /// OR2T8 (11738714_s_at) / Fold change /veh OR2T12 /// OR2T33 /// OR2T8 (11738714_s_at) / RFU VCAN (11748164_a_at) / Fold change /veh VCAN (11748164_a_at) / RFU JSRP1 (11732532_at) / Fold change /veh JSRP1 (11732532_at) / RFU KRTAP10-11 (11738290_x_at) / Fold change /veh KRTAP10-11 (11738290_x_at) / RFU MYO3A (11730013_a_at) / Fold change /veh MYO3A (11730013_a_at) / RFU EBF3 (11725865_a_at) / Fold change /veh EBF3 (11725865_a_at) / RFU CAMK2N1 (11719241_x_at) / Fold change /veh CAMK2N1 (11719241_x_at) / RFU C5orf56 (11738088_a_at) / Fold change /veh C5orf56 (11738088_a_at) / RFU OLFML3 (11715873_a_at) / Fold change /veh OLFML3 (11715873_a_at) / RFU LOC100653217 /// NTM (11731650_a_at) / Fold change /veh LOC100653217 /// NTM (11731650_a_at) / RFU MAPK11 (11762145_a_at) / Fold change /veh MAPK11 (11762145_a_at) / RFU FIZ1 (11724087_x_at) / Fold change /veh FIZ1 (11724087_x_at) / RFU OASL (11726364_x_at) / Fold change /veh OASL (11726364_x_at) / RFU SOX15 (11748057_x_at) / Fold change /veh SOX15 (11748057_x_at) / RFU CD79A (11719716_a_at) / Fold change /veh CD79A (11719716_a_at) / RFU HIST1H1D (11736915_at) / Fold change /veh HIST1H1D (11736915_at) / RFU CASKIN2 (11723855_a_at) / Fold change /veh CASKIN2 (11723855_a_at) / RFU LOC730098 (11760151_x_at) / Fold change /veh LOC730098 (11760151_x_at) / RFU OR4N2 (11742367_at) / Fold change /veh OR4N2 (11742367_at) / RFU PRRT2 (11749266_a_at) / Fold change /veh PRRT2 (11749266_a_at) / RFU SNX32 (11753110_a_at) / Fold change /veh SNX32 (11753110_a_at) / RFU CDHR5 (11726645_a_at) / Fold change /veh CDHR5 (11726645_a_at) / RFU RCAN1 (11760418_a_at) / Fold change /veh RCAN1 (11760418_a_at) / RFU FAM167A (11723789_a_at) / Fold change /veh FAM167A (11723789_a_at) / RFU FAM26E (11764081_at) / Fold change /veh FAM26E (11764081_at) / RFU ISYNA1 (11749810_s_at) / Fold change /veh ISYNA1 (11749810_s_at) / RFU ACY1 (11761880_at) / Fold change /veh ACY1 (11761880_at) / RFU 11764098_at / Fold change /veh 11764098_at / RFU SAMD14 (11745864_x_at) / Fold change /veh SAMD14 (11745864_x_at) / RFU NPB (11741838_a_at) / Fold change /veh NPB (11741838_a_at) / RFU TMPRSS6 (11731388_a_at) / Fold change /veh TMPRSS6 (11731388_a_at) / RFU KRTAP10-2 (11738614_at) / Fold change /veh KRTAP10-2 (11738614_at) / RFU ARHGAP8 /// PRR5-ARHGAP8 (11727945_x_at) / Fold change /veh ARHGAP8 /// PRR5-ARHGAP8 (11727945_x_at) / RFU KRTAP5-7 /// NADSYN1 (11734609_at) / Fold change /veh KRTAP5-7 /// NADSYN1 (11734609_at) / RFU RASL12 (11751679_a_at) / Fold change /veh RASL12 (11751679_a_at) / RFU CDKN2B (11736163_a_at) / Fold change /veh CDKN2B (11736163_a_at) / RFU PRF1 (11729649_at) / Fold change /veh PRF1 (11729649_at) / RFU, ZNF638 /// ZNF638-IT1 / Fold change vs veh, ZNF638 /// ZNF638-IT1 / RFU, PANK3 / Fold change vs veh, PANK3 / RFU, SH3YL1 / Fold change vs veh, SH3YL1 / RFU, ZEB2 / Fold change vs veh, ZEB2 / RFU, NRIP1 / Fold change vs veh, NRIP1 / RFU, PTTG1IP / Fold change vs veh, PTTG1IP / RFU, CAPN2 / Fold change vs veh, CAPN2 / RFU, MED14 / Fold change vs veh, MED14 / RFU, SNORA58 / Fold change vs veh, SNORA58 / RFU, C1orf63 / Fold change vs veh, C1orf63 / RFU, LRRFIP1 / Fold change vs veh, LRRFIP1 / RFU, NDUFAF7 / Fold change vs veh, NDUFAF7 / RFU, SLC12A2 / Fold change vs veh, SLC12A2 / RFU, IBTK / Fold change vs veh, IBTK / RFU, ESF1 / Fold change vs veh, ESF1 / Fold change vs veh, TMEM50B / RFU, TAOK1 / Fold change vs veh, TAOK1 / RFU, ACBD3 / Fold change vs veh, ACBD3 / RFU, TMA16 / Fold change vs veh, TMA16 / RFU, RWDD3 / Fold change vs veh, RWDD3 / RFU, BCAT1 / Fold change vs veh, BCAT1 / RFU, EDEM3 / Fold change vs veh, EDEM3 / RFU, TMEM33 / Fold change vs veh, TMEM33 / RFU, WDR75 / Fold change vs veh, WDR75 / RFU, AHCTF1 / Fold change vs veh, AHCTF1 / RFU, TFRC / Fold change vs veh, TFRC / RFU, ZDHHC17 / Fold change vs veh, ZDHHC17 / RFU, NOM1 / Fold change vs veh, NOM1 / RFU, ARL8B / Fold change vs veh, ARL8B / RFU, ZBTB11 / Fold change vs veh, ZBTB11 / RFU, TAMM41 / Fold change vs veh, TAMM41 / RFU, KIAA1704 /// LOC100996395 / Fold change vs veh, KIAA1704 /// LOC100996395 / RFU, ING1 / Fold change vs veh, ING1 / RFU, TRMT61B / Fold change vs veh, TRMT61B / RFU, FUBP3 / Fold change vs veh, FUBP3 / RFU, TP53 / Fold change vs veh, TP53 / RFU, TNKS2 / Fold change vs veh, TNKS2 / RFU, ZFP14 / Fold change vs veh, ZFP14 / RFU, ACTR2 / Fold change vs veh, ACTR2 / RFU, PPP3R1 / Fold change vs veh, PPP3R1 / RFU, PIK3R1 / Fold change vs veh, PIK3R1 / RFU, HNRNPA1 / Fold change vs veh, HNRNPA1 / RFU, RNF170 / Fold change vs veh, RNF170 / RFU, ZNF28 / Fold change vs veh, ZNF28 / RFU, RNGTT / Fold change vs veh, RNGTT / RFU, OGT / Fold change vs veh, OGT / RFU, BRD1 / Fold change vs veh, BRD1 / RFU, MARS / Fold change vs veh, MARS / RFU, ZNF655 / Fold change vs veh, ZNF655 / RFU, FAHD1 / Fold change vs veh, FAHD1 / RFU, BDP1 / Fold change vs veh, BDP1 / RFU, LRRCC1 / Fold change vs veh, LRRCC1 / RFU, ARID1A / Fold change vs veh, ARID1A / RFU, ZNF146 / Fold change vs veh, ZNF146 / RFU, ZNF330 / Fold change vs veh, ZNF330 / RFU, GPN3 / Fold change vs veh, GPN3 / RFU, C9orf123 / Fold change vs veh, C9orf123 / RFU, N4BP2L2 / Fold change vs veh, N4BP2L2 / RFU, ARFIP1 / Fold change vs veh, ARFIP1 / RFU, FAM179B / Fold change vs veh, FAM179B / RFU, BCL10 / Fold change vs veh, BCL10 / RFU, UHRF1BP1L / Fold change vs veh, UHRF1BP1L / RFU, BET1 / Fold change vs veh, BET1 / RFU, CNOT2 / Fold change vs veh, CNOT2 / RFU, ZNF268 / Fold change vs veh, ZNF268 / Fold change vs veh, ZNF507 / RFU, DGCR2 / Fold change vs veh, DGCR2 / RFU, WDSUB1 / Fold change vs veh, WDSUB1 / Fold change vs veh, HSP90B1 /// MIR3652 / RFU, ADSS / Fold change vs veh, ADSS / RFU, GK / Fold change vs veh, GK / RFU, ZNF148 / Fold change vs veh, ZNF148 / RFU, TAF9 / Fold change vs veh, TAF9 / RFU, SLC1A5 / Fold change vs veh, SLC1A5 / RFU, SLMO2 / Fold change vs veh, SLMO2 / RFU, ABCC4 / Fold change vs veh, ABCC4 / RFU, LOC101060439 /// RAP1B / Fold change vs veh, LOC101060439 /// RAP1B / RFU, RFX7 / Fold change vs veh, RFX7 / RFU, GTPBP10 / Fold change vs veh, GTPBP10 / RFU, CNEP1R1 / Fold change vs veh, CNEP1R1 / RFU, BIVM-ERCC5 /// ERCC5 / Fold change vs veh, BIVM-ERCC5 /// ERCC5 / RFU, ILF3 / Fold change vs veh, ILF3 / RFU 11762660_at / Fold change /veh 11762660_at / RFU VCAN (11757783_s_at) / Fold change /veh VCAN (11757783_s_at) / RFU DDX43 (11728927_at) / Fold change /veh DDX43 (11728927_at) / RFU KRT8 (11758188_x_at) / Fold change /veh KRT8 (11758188_x_at) / RFU NKD1 (11759106_at) / Fold change /veh NKD1 (11759106_at) / RFU SRD5A1 (11742802_a_at) / Fold change /veh SRD5A1 (11742802_a_at) / RFU TPSAB1 /// TPSB2 (11721975_s_at) / Fold change /veh TPSAB1 /// TPSB2 (11721975_s_at) / RFU GSTM3 (11746129_a_at) / Fold change /veh GSTM3 (11746129_a_at) / RFU IL23R (11737362_x_at) / Fold change /veh IL23R (11737362_x_at) / RFU TMEM51 (11727254_a_at) / Fold change /veh TMEM51 (11727254_a_at) / RFU PIWIL2 (11732686_x_at) / Fold change /veh PIWIL2 (11732686_x_at) / RFU ORM1 (11744905_x_at) / Fold change /veh ORM1 (11744905_x_at) / RFU CCDC152 (11743942_at) / Fold change /veh CCDC152 (11743942_at) / RFU ECM1 (11717891_a_at) / Fold change /veh ECM1 (11717891_a_at) / RFU IL23R (11748794_a_at) / Fold change /veh IL23R (11748794_a_at) / RFU TNFAIP8L3 (11732012_x_at) / Fold change /veh TNFAIP8L3 (11732012_x_at) / RFU MBOAT4 (11741988_at) / Fold change /veh MBOAT4 (11741988_at) / RFU 11764193_at / Fold change /veh 11764193_at / RFU TMEM53 (11763286_at) / Fold change /veh TMEM53 (11763286_at) / RFU MAGEB2 (11727129_at) / Fold change /veh MAGEB2 (11727129_at) / RFU TMEM200A (11744735_a_at) / Fold change /veh TMEM200A (11744735_a_at) / RFU CCDC152 (11751479_a_at) / Fold change /veh CCDC152 (11751479_a_at) / RFU FAM211A (11726209_a_at) / Fold change /veh FAM211A (11726209_a_at) / RFU RGS16 (11746705_a_at) / Fold change /veh RGS16 (11746705_a_at) / RFU VCAN (11755009_s_at) / Fold change /veh VCAN (11755009_s_at) / RFU RHOB (11743442_s_at) / Fold change /veh RHOB (11743442_s_at) / RFU RGS16 (11720943_a_at) / Fold change /veh RGS16 (11720943_a_at) / RFU RGS16 (11720944_at) / Fold change /veh RGS16 (11720944_at) / RFU, VPS4B / Fold change vs veh, VPS4B / RFU, CREB1 / Fold change vs veh, CREB1 / RFU, DNAJC13 / Fold change vs veh, DNAJC13 / RFU, GNAQ / Fold change vs veh, GNAQ / RFU, CDK5R1 / Fold change vs veh, CDK5R1 / RFU, ZRANB3 / Fold change vs veh, ZRANB3 / RFU, CUL4A / Fold change vs veh, CUL4A / RFU, CCNY / Fold change vs veh, CCNY / RFU, UFL1 / Fold change vs veh, UFL1 / RFU, COG3 / Fold change vs veh, COG3 / RFU, DIAPH2 / Fold change vs veh, DIAPH2 / RFU, SKA2 / Fold change vs veh, SKA2 / RFU, AFF3 / Fold change vs veh, AFF3 / RFU, LMF1 / Fold change vs veh, LMF1 / RFU, IPO11 / Fold change vs veh, IPO11 / RFU, DFFB / Fold change vs veh, DFFB / RFU, FOXP1 / Fold change vs veh, FOXP1 / RFU, CARD8 / Fold change vs veh, CARD8 / RFU, STRN3 / Fold change vs veh, STRN3 / RFU, ADK / Fold change vs veh, ADK / RFU, RASSF2 / Fold change vs veh, RASSF2 / RFU, WIPF1 / Fold change vs veh, WIPF1 / RFU, LARP1B / Fold change vs veh, LARP1B / RFU, RASA1 / Fold change vs veh, RASA1 / RFU, RB1 / Fold change vs veh, RB1 / RFU, PPFIA1 / Fold change vs veh, PPFIA1 / RFU, MAT2A / Fold change vs veh, MAT2A / RFU, CCT5 / Fold change vs veh, CCT5 / RFU, WDR92 / Fold change vs veh, WDR92 / RFU, CUX1 / Fold change vs veh, CUX1 / RFU, TTC7A / Fold change vs veh, TTC7A / RFU, TMEM135 / Fold change vs veh, TMEM135 / RFU, DEPTOR / Fold change vs veh, DEPTOR / RFU, CPM / Fold change vs veh, CPM / RFU, DNAJB6 / Fold change vs veh, DNAJB6 / RFU, CACNA2D3 / Fold change vs veh, CACNA2D3 / RFU, DTX4 / Fold change vs veh, DTX4 / RFU, TFCP2 / Fold change vs veh, TFCP2 / RFU, GMCL1 /// GMCL1P1 / Fold change vs veh, GMCL1 /// GMCL1P1 / RFU, AEBP2 / Fold change vs veh, AEBP2 / RFU, SNHG1 /// SNORD22 /// SNORD25 /// SNORD26 /// SNORD27 /// SNORD28 /// SNORD29 /// SNORD31 / Fold change vs veh, SNHG1 /// SNORD22 /// SNORD25 /// SNORD26 /// SNORD27 /// SNORD28 /// SNORD29 /// SNORD31 / Fold change (Aza/veh), C12orf56 (ProbeSet 11735607_a_at) / Fold change (ACY-1035/veh), C12orf56 (ProbeSet 11735607_a_at) / Fold change (Aza/veh), FGFR1OP (ProbeSet 11751329_s_at) / Fold change (ACY-1035/veh), FGFR1OP (ProbeSet 11751329_s_at) / Fold change (Aza/veh), VPS36 (ProbeSet 11739960_a_at) / Fold change (ACY-1035/veh), VPS36 (ProbeSet 11739960_a_at) / RFU SYPL1 (11715823_x_at) / Fold change /veh SYPL1 (11715823_x_at) / RFU IGFBP7 (11715501_s_at) / Fold change /veh IGFBP7 (11715501_s_at) / RFU REEP3 (11722064_at) / Fold change /veh REEP3 (11722064_at) / RFU IGLL1 (11728026_x_at) / Fold change /veh IGLL1 (11728026_x_at): dose or concentration left out as unconfirmed
Details: ProbeSet 11753623_s_at; LIST D

Nc1ccc(-c2cccs2)cc1NC(=O)c1ccc2c(c1)cc(C1CC1)n2CCN1CCOCC1 [ACY-1035]
RFU, LOC101060439 /// RAP1B: 312.98 RFU
